Like-named read-outs stand apart in the source and are kept apart here.
Columns and labels:
CYP2C19 = CYP2C19 (Homo sapiens, UniProt P33261); details: read-out: KM of VRC N-oxidation, recombinant CYP2C19, cited from earlier work
CYP2C9 = CYP2C9 (Homo sapiens, UniProt P11712); set-up: purchased Corning Inc; details: read-out: KM of VRC N-oxidation; cited from earlier work
CYP3A4 [1] = biological target: T1, CYP3A4 (Homo sapiens, UniProt P08684); experiment: Michaelis-Menten kinetics of voriconazole N-oxidation by rhCYP3A4
[2] = taken from literature for IVIVE; ref 7 (supplement); cited from earlier work
[3] = test system: human intestine microsomes (HIM); experiment: Michaelis-Menten kinetics of voriconazole N-oxidation in human intestine microsomes; format: in vitro ADME; details: N-oxidation of voriconazole; HIM 0.5 mg/mL
[4] = as above; format: in vitro ADME; details: human, human intestine microsomes, pH 7.5
CYP3A4 [5] = biological target: T1, CYP3A4; set-up: purchased Corning Inc; details: cited from earlier work
[6] = cited from earlier work
CYP3A4 [7] = details: mixed inhibition, cited from earlier work
CYP3A4 [8] = experiment: Contribution of CYP3A4 to voriconazole N-oxidation, extrapolation from rhCYP with ISEF; format: in vitro ADME; details: human, pH 7.5, VRC N-oxidation, read-out: extrapolated CLint,CYPi,HLM (CYP3A4)
From the text: Towards the Elucidation of the Pharmacokinetics of
Josefine Schulz 1, Antonia Thomas 1, Ayatallah Saleh 1,2, Gerd Mikus 1,3, Charlotte Kloft 1,† and Robin Michelet 1,*,† 1 Department of Clinical Pharmacy & Biochemistry, Institute of Pharmacy, Freie Universitaet Berlin, Kelchstraße 31, 12169 Berlin, Germany
2 Graduate Research Training Program PharMetrX, 12169 Berlin/Potsdam, Germany 3 Department of Clinical Pharmacology and Pharmacoepidemiology, University Hospital Heidelberg, Im Neuenheimer Feld 410, 69120 Heidelberg, Germany
* Correspondence: robin.michelet@fu-berlin.de; Tel.: +49-30-838-50659
† These authors contributed equally to this work
Supplementary Section S1. Marker reactions for CYP2C19, CYP2C9 and CYP3A4 […]
for CYP3A4 [1,2] were used to determine (i) intersystem extrapolation factors (ISEF), (ii) […]
(i) Experiments for the determination of Michaelis-Menten kinetics in HLM were performed at protein concentrations of 0.02, 0.04 and 0.05 mg/mL for the marker reactions of CYP2C19, CYP2C9 and CYP3A4 (n = 3 each), respectively. Two samples were taken from each incubation after 15 and 25 min for investigations on CYP2C19, after 5 and 10 min for CYP2C9 and after 7 and 12 min for CYP3A4, respectively. […]
were applied as substrate concentrations.
For investigations in rhCYP concentrations of 2.5 pmol/mL rhCYP2C19 (n = 3), […]
respectively. […]

HLM = HLM derived from three individuals, cited from earlier work
[9] = Michaelis-Menten kinetics of voriconazole N-oxidation in human liver microsomes; format: in vitro ADME; details: human, human liver microsomes, pH 7.5
[10] = test system: human liver microsomes (HLM); experiment: as above; format: in vitro ADME; details: N-oxidation of voriconazole; HLM 0.2 mg/mL

Chain of CYP2C9 (P11712 whole entry): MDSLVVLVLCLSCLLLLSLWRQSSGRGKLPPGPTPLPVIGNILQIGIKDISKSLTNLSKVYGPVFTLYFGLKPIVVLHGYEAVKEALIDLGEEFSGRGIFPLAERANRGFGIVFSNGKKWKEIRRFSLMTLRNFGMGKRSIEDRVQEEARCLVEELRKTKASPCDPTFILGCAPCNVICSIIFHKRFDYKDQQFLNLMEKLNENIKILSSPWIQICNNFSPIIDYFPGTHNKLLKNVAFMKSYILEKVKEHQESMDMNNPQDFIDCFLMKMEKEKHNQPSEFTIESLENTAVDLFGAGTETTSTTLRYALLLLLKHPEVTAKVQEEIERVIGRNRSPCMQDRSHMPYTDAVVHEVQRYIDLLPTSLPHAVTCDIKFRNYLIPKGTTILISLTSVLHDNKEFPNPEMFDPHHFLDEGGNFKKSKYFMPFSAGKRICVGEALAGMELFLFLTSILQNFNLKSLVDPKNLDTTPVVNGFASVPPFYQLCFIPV
T1 sequence (P08684 whole entry): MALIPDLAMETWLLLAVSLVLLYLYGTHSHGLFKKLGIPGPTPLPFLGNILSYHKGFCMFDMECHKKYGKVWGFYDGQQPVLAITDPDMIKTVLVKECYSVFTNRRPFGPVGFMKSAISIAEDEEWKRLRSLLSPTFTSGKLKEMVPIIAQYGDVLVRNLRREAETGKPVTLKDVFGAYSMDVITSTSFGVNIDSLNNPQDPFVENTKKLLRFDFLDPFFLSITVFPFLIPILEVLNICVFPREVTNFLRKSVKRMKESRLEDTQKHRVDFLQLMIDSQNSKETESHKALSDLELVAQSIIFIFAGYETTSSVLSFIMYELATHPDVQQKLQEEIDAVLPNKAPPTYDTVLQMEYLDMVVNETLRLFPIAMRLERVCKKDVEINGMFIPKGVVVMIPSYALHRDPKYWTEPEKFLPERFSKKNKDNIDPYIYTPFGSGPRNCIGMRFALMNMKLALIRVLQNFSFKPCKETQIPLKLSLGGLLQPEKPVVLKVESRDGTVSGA

SMILES: C[C@@H](c1ncncc1F)[C@](O)(Cn1cncn1)c1ccc(F)cc1F [VRC, voriconazole]
- Km (CYP2C9): 20 µM
- Km (CYP3A4 [5]; read-out: KM of VRC N-oxidation, ref 31): 235 µM
- bioavailability ([6]; extensive metabolizers): 75%
- Km (HLM; read-out: KM of VRC N-oxidation): 8.1 µM

Source: paper PMC8948939 (Pharmaceutics, 2022)
